Structures are written as SMILES.

This experiment has as its target T1, human TLR7 (Homo sapiens, UniProt Q9NYK1).
T1 construct: host or cells: HEK-Blue TLR7 cells (engineered human embryonic kidney cells)
T1 sequence (Q9NYK1 27-1049): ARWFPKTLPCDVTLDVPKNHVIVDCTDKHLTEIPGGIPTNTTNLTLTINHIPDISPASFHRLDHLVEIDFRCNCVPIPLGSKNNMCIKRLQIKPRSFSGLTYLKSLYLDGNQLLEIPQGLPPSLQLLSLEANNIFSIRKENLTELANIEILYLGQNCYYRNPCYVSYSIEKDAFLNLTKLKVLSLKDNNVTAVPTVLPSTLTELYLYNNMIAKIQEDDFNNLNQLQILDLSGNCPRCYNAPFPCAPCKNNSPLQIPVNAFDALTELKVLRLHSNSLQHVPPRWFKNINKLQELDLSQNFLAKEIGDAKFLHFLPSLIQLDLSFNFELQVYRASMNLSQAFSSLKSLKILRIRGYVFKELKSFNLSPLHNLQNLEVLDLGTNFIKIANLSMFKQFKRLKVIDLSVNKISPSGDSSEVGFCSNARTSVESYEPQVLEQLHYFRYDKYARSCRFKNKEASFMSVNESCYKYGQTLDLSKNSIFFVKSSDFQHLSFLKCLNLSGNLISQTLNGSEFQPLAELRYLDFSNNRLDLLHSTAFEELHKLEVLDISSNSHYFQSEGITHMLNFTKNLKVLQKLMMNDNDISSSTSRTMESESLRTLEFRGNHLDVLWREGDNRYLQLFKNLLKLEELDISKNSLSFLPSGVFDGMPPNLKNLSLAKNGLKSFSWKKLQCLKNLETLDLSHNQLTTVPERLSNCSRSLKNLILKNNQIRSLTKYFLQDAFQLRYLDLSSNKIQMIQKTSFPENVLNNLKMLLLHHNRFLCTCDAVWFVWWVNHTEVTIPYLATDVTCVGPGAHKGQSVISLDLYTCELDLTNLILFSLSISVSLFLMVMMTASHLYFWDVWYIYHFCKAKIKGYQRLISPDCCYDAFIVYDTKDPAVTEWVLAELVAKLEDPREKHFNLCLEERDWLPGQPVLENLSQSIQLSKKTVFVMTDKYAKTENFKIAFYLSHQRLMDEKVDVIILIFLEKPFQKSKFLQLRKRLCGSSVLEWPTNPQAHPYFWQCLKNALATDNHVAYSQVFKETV
Put plainly: Human TLR7 agonist activity reporter assay (HEK-Blue TLR7 cells, SEAP reporter). The class given is cell-based. The settings on record: 18 h treatment, average where assay repeated, Table A1, read-out: hTLR7 Agonism EC50. The method, then:
This procedure describes a method for assaying human TLR7 (hTLR7) agonist activity of the compounds disclosed in this specification.
HEK-Blue™ TLR7 cells were added to each well of a 384-well tissue-culture plate (15,000 cells per well) and incubated 16-18 h at 37° C., 5% CO2. Compounds (100 nl) were dispensed into wells containing the HEK-Blue™ TLR cells and the treated cells were incubated at 37° C., 5% CO2. After 18 h treatment ten microliters of freshly-prepared Quanti-Blue™ reagent (Invivogen) was added to each well, incubated for 30 min (37° C., 5% CO2) and SEAP levels measured using an Envision plate reader (OD=620 nm). The half maximal effective concentration values (EC50; compound concentration which induced a response halfway between the assay baseline and maximum) were calculated.
In general terms: A reporter such as luciferase makes a cellular process visible.
With `CCC[C@@H](CCO)Nc1nc(N)nc2cnn(Cc3cc(CN[C@H]4CCOC[C@H]4O)ccc3OC)c12` [Compound 179, (3S,4S)-4-[({3-[(5-amino-7-{[(3S)-1-hydroxyhexan-3-yl]amino}-1H-pyrazolo[4,3-d]pyrimidin-1-yl)methyl]-4-methoxyphenyl}methyl)-amino]oxan-3-ol], the EC50 came to 405 nM. On to `CCC[C@@H](CCO)Nc1nc(N)nc2cnn(Cc3cc(CN[C@H]4COC[C@@H]4O)ccc3OC)c12` [Compound 184], for which the EC50 came to 339 nM. Consider `CCCCNc1nc(N)nc2cnn(Cc3cc(CN4CC5CCS(=O)(=O)C5C4)ccc3OC)c12` (stereo not shown) [Compound 113, 5-[(3-{[5-amino-7-(butyl-amino)-1H-pyrazolo[4,3-d]pyrimidin-1-yl]methyl}-4-methoxyphenyl)methyl]-hexahydro-2H-1λ6-thieno-[2,3-c]pyrrole-1,1-dione], for which the EC50 was found to be 493 nM. The value for `CCCCNc1nc(N)nc2cnn(Cc3cc(CNC4CCOCC4)ccc3OC)c12` [Compound 101, N7-butyl-1-[(2-methoxy-5-{[(oxan-4-yl)amino]-methyl}phenyl)methyl]-1H-pyrazolo[4,3-d]pyrimidine-5,7-diamine] was 352 nM. Then `CCCCNc1nc(N)nc2cnn(Cc3cc(CN4CC5CCCCCC54)ccc3OC)c12` (stereo not shown) [Compound 106, 1-{[5-({8-azabicyclo-[5.2.0]nonan-8-yl}methyl)-2-methoxyphenyl]methyl}-N7-butyl-1H-pyrazolo[4,3-d]pyrimidine-5,7-diamine], with 502 nM; and `CCCCNc1nc(N)nc2cnn(Cc3cc(CN4CC5CCCC(C5)C4)ccc3OC)c12` [Compound 104, 1-{[5-({3-azabicyclo-[3.3.1]nonan-3-yl}methyl)-2-methoxyphenyl]methyl}-N7-butyl-1H-pyrazolo[4,3-d]pyrimidine-5,7-diamine], with 630 nM; and `CCCCNc1nc(N)nc2cnn(Cc3cc(CN4CCN(C)CC4)ccc3OC)c12` [Compound 109, N7-butyl-1-({2-methoxy-5-[(4-methylpiperazin-1-yl)methyl]phenyl}methyl)-1H-pyrazolo[4,3-d] pyrimidine-5,7-diamine], with 51.3 nM.

Regarding `CCCCNc1nc(N)nc2cnn(Cc3cc(CNC4CC5(CC5)C4)ccc3OC)c12` [Compound 111, N7-butyl-1-({2-methoxy-5-[({spiro[2.3]hexan-5-yl}amino)methyl]phenyl}methyl)-1H-pyrazolo[4,3-d]pyrimidine-5,7-diamine], the EC50 is 358 nM. Then `CCCCNc1nc(N)nc2cnn(Cc3cc(CN4CCC5CCC(C5)C4)ccc3OC)c12` (stereo not shown) [Compound 102, 1-{[5-({3-azabicyclo-[4.2.1]nonan-3-yl}methyl)-2-methoxyphenyl]methyl}-N7-butyl-1H-pyrazolo[4,3-d]pyrimidine-5,7-diamine], with 658 nM; and `CCC[C@@H](CCO)Nc1nc(N)nc2cnn(Cc3cc(CN[C@H]4COCC[C@@H]4O)ccc3OC)c12` [Compound 182, (3S,4S)-3-[({3-[(5-amino-7-{[(3S)-1-hydroxyhexan-3-yl]amino}-1H-pyrazolo[4,3-d]pyrimidin-1-yl)methyl]-4-methoxyphenyl}methyl)-amino]oxan-4-ol], with 197 nM; and `CCCCNc1nc(N)nc2cnn(Cc3cc(CN4CCC4)ccc3OC)c12` [Compound 115, 1-({5-[(azetidin-1-yl)methyl]-2-methoxyphenyl}-methyl)-N7-butyl-1H-pyrazolo[4,3-d]pyrimidine-5,7-diamine], with 172 nM. On to `CCCCNc1nc(N)nc2cnn(Cc3cc(CNC(C)(C)C)ccc3OC)c12` [Compound 112], for which the EC50 amounted to 249 nM. For the compound `CCCCNc1nc(N)nc2cnn(Cc3cc(CN4CC(O)C4)ccc3OC)c12` [Compound 108, 1-[(3-{[5-amino-7-(butyl-amino)-1H-pyrazolo[4,3-d]pyrimidin-1-yl]methyl}-4-methoxyphenyl)me-thyl]azetidin-3-ol], the EC50 is 146 nM. On to `CCC[C@@H](CCO)Nc1nc(N)nc2cnn(Cc3cc(CN[C@@H]4CCOC[C@H]4O)ccc3OC)c12` [Compound 183, (3S,4R)-4-[({3-[(5-amino-7-{[(3S)-1-hydroxyhexan-3-yl]amino}-1H-pyrazolo[4,3-d]pyrimidin-1-yl)methyl]-4-methoxyphenyl}methyl)-amino]oxan-3-ol], for which the concentration for a half-maximal effect (EC50) stood at 479 nM. Then `CCCCNc1nc(N)nc2cnn(Cc3cc(CN4CC5CCCC(C4)C5O)ccc3OC)c12` (stereo not shown) [Compound 107, 3-[(3-{[5-amino-7-(butyl-amino)-1H-pyrazolo[4,3-d]pyrimidin-1-yl]methyl}-4-methoxyphenyl)methyl]-3-aza bicyclo[3.3.1]nonan-9-ol], with 750 nM; and `CCC[C@@H](CCO)Nc1nc(N)nc2cnn(Cc3cc(CN[C@@H]4COCC[C@H]4O)ccc3OC)c12` [Compound 180, (3R,4R)-3-[({3-[(5-amino-7-{[(3S)-1-hydroxyhexan-3-yl]amino}-1H-pyrazolo[4,3-d]pyrimidin-1-yl)methyl]-4-methoxyphenyl}methyl)-amino]oxan-4-ol], with 213 nM; and `CCCCNc1nc(N)nc2cnn(Cc3cc(CN4CCC5CCC(C5)C4)ccc3OC)c12` (stereo not shown) [Compound 103, 1-{[5-({3-azabicyclo-[4.2.1]nonan-3-yl}methyl)-2-methoxyphenyl]methyl}-N7-butyl-1H-pyrazolo[4,3-d]pyrimidine-5,7-diamine], with 193 nM. As to `CCC[C@@H](CCO)Nc1nc(N)nc2cnn(Cc3cc(CN[C@@H]4COC[C@H]4O)ccc3OC)c12` [Compound 181, (3S,4R)-4-[({3-[(5-amino-7-{[(3S)-1-hydroxyhexan-3-yl]amino}-1H-pyrazolo[4,3-d]pyrimidin-1-yl)methyl]-4-methoxyphenyl}methyl)-amino]oxolan-3-ol], the EC50 worked out at 308 nM. As to `CCCCNc1nc(N)nc2cnn(Cc3cc(CNC45CC(C4)C5)ccc3OC)c12` [Compound 110, 1-({5-[({bicyclo[1.1.1]-pentan-1-yl}amino)methyl]-2-methoxyphenyl}-methyl)-N7-butyl-1H-pyrazolo[4,3-d]pyrimidine-5,7-diamine], the EC50 worked out at 447 nM.

The term EC50 denotes the midpoint of the concentration-response curve.

The values are drawn from patent US20230118688A1, “1H-PYRAZOLO[4,3-d]PYRIMIDINE COMPOUNDS AS TOLL-LIKE RECEPTOR 7 (TLR7) AGONISTS” (BRISTOL-MYERS SQUIBB COMPANY, priority 2020, published 2023).
